Measurements published in patent publication US20250282819A1, “MITOCHONDRIA-[…] PEPTIDE THAT CAN BE […] DELIVERED AT NANOMOLAR CONCENTRATION, AND USE THEREOF” (CAMP THERAPEUTICS INC., priority 2021, published 2025).
Where a SMILES comes first, the peptide text is derived from it.

What was measured:
[1] = test system: HeLa cells; assay type: cell-based
Method: Cell-penetrating ability was evaluated using the fluorescently-labeled versions of the dimeric bundle peptides synthesized in Example 3, and measured as EC50 values according to the method described in Experimental Example 3.
1×10^5 HeLa cells were seeded into a 24-well plate. After 24 hours, the peptide was added to the cells and further incubation was performed for 3 hours. The incubated cells were harvested, washed with PBS, suspended in PBS, and then analyzed by fluorescence-activated cell sorting (FACS; BD Accuri, USA). The cells whose fluorescence intensity exceeds the maximum intensity of untreated cells were classified as fluorescence-positive cells.

[2] = test system: HeLa cells; assay: Mitochondria-targeting ability by mitochondrial fractionation; assay type: cell-based; details: EC50 concentration
Method: To determine at what rate the dimeric bundle peptides according to the present disclosure target mitochondria, mitochondrial fractionation was performed according to the method described in Experimental Example 4. […] Then, the cells were harvested and fractionation was performed.
Cell-penetrating ability was performed according to the method described in Experimental Example 3, and mitochondria-targeting ability was assessed by mitochondrial fractionation according to the method described in Experimental Example 4. In addition to SS-31 as a conventional peptide, a mitochondrial-penetrating peptide of Kelly's group (MPP1a; see Horton, Kristin L et al. “Mitochondria-penetrating peptides.” Chemistry & biology vol. 15, 4 (2008): 375-82) was used as an additional comparison group. The amino acid sequence of MPP1a is as follows: X(dR)XKX(dR)XK (where X is cyclohexylalanine, dR is D-arginine, and K is lysine).
Intracellular distribution of peptides was detected using the mitochondria isolation method. […] The cells were harvested, washed with cold PBS, and suspended in cold IB (30 mM Tris-HCl, pH 7.4; 225 mM mannitol; 75 mM sucrose; and 0.1 mM EGTA). […] Lysed cells were monitored under a light microscope. […] The fluorescence intensity of each fraction was measured by using a microplate reader [TECAN, Switzerland; excitation (Ex)/emission (Em)=510/570 nm].

[3] = test system: HeLa cells; assay: ATP levels in damaged cells pretreated with peptide; assay type: cell-based; details: HeLa cells, 10 or 30 nM; 1 μM antimycin A or 1 mM H2O2
Method: The relative ATP levels of cells were compared by fluorescence intensity according to the method described in Experimental Example 8, and mitochondrial damage was induced by treatment with two different mitochondrial damaging agents (1 μM of antimycin A or 1 mM of H2O2).
Cellular ATP levels were assessed using an ATP detection kit (Abcam, ab113849, USA) according to the manufacturer's instructions. Fluorescence luminescence was measured with a microplate reader (Promega, Glomax 96 microplate luminometer, USA).

[4] = Cardiolipin binding assay, NBD fluorescence with liposomes
Method: To further validate specificity of CMP3013 for cardiolipin-rich membranes identified in Example 9, two model systems mimicking the inner mitochondrial membrane were constructed using POPC (1-palmitoyl-2-oleoyl-sn-glycero-3-phosphocholine) and POPE (1-palmitoyl-2-oleoyl-sn-glycero-3-phosphoethanolamine), and cardiolipin binding assays were performed using an NBD-labeled CMP3013 monomer (NBD-CMP3013m), according to the method described in Experimental Example 12.
For the association experiments, 1 μM of NBD-labeled peptide dissolved in PBS was prepared in a black 96-well plate. Liposome (POPC:POPE=2:1 or POPC:POPE=2:1, containing 10% cardiolipin) was added to the peptide until the desired concentration was achieved. The mixture of NBD-peptide and liposome was mixed well through pipetting, and then fluorescence emission of the sample was monitored (λex=467 nm, λem=536 nm).
For the association experiments depending on cardiolipin ratio, 1 μM of NBD-labeled peptide or C6-NBD dissolved in PBS was prepared in a black 96-well plate. Liposome (POPC:POPE=2:1, containing 0 to 20% cardiolipin) was added to the peptide until the desired concentration (5 μM) was achieved. This mixture was mixed well through pipetting and fluorescence emission of the sample was monitored (λex=467 nm, λem=536 nm).
For dissociation experiments, 1 μM of NBD-labeled peptide dissolved in PBS was prepared in a black 96-well plate. Liposome (POPC:POPE=2:1 or POPC:POPE=2:1, containing 10% cardiolipin) was added to the peptide until the desired concentration (100 μM) was achieved. The mixture of NBD-peptide and liposome was mixed well through pipetting and fluorescence intensity of the mixture was measured (λex=467 nm, λem=536 nm). The unlabeled peptide (acetylated peptide) was then added to the mixture and mixed well through pipetting. Incubation in the dark was performed for 10 minutes, and then changes in fluorescence intensity were monitored. Peptide addition and fluorescence measurement were repeated until the concentration of acetylated peptide reached 40 μM.

[5] = Membrane potential restoring ability, JC-1, comparison of SS-31 and CMP3013; assay type: cell-based; details: 1 mM H2O2; 10 or 30 nM
Method: For comparison of efficacy of the two peptides on restoration of mitochondrial function, SS-31 and CMP3013 were tested for their effect on membrane potential. The change in mitochondrial membrane potential was measured as a fluorescence ratio of JC-1 according to the method described in Experimental Example 8, and 1 mM of H2O2 was used as a mitochondrial damaging agent.

[6] = test system: C57BL/6 mice; assay: TAA-induced acute liver failure model
Method: Serum samples were obtained from blood collected from the heart on Day 6, and the samples were analyzed using a hematology analyzer (Hitachi Chemical Industries, Ltd., Japan). Blood AST (aspartate aminotransferase), ALT (alanine aminotransferase), and ALP (alkaline phosphatase) were measured and evaluated as liver injury markers.
Serum samples were obtained on the seventh day (Day 7) and analyzed using a hematology analyzer. Blood AST (aspartate aminotransferase), ALT (alanine aminotransferase), and ALP (alkaline phosphatase) were measured and evaluated as liver injury markers.

[7] = 1 mg/kg intravenous x3, TAA 100 mg/kg Day 5, serum Day 6
[8] = mice, 1 mg/kg intravenous, Days 0, 2, 4

CC(=O)N[C@@H](CC1CCCCC1)C(=O)N[C@H]1CSSC[C@@H](C(=O)N[C@@H](CCCNC(=N)N)C(N)=O)NC(=O)[C@H](CC2CCCCC2)NC(=O)[C@H](CCCNC(=N)N)NC(=O)[C@H](CCCNC(=N)N)NC(=O)[C@H](CC2CCCCC2)NC(=O)[C@H](CC(C)C)NC(=O)[C@H](CCCNC(=N)N)NC(=O)[C@@H](NC(=O)[C@H](CC2CCCCC2)NC(C)=O)CSSC[C@@H](C(=O)N[C@@H](CCCNC(=N)N)C(N)=O)NC(=O)[C@H](CC2CCCCC2)NC(=O)[C@H](CCCNC(=N)N)NC(=O)[C@H](CCCNC(=N)N)NC(=O)[C@H](CC2CCCCC2)NC(=O)[C@H](CC(C)C)NC(=O)[C@H](CCCNC(=N)N)NC1=O [CMP3013] (HELM PEPTIDE1{[ac].[Cha].C.R.L.[Cha].R.R.[Cha].C.R.[am]}|PEPTIDE2{[ac].[Cha].C.R.L.[Cha].R.R.[Cha].C.R.[am]}$PEPTIDE1,PEPTIDE2,3:R3-10:R3|PEPTIDE1,PEPTIDE2,10:R3-3:R3$$$V2.0)
improvement in cell penetration rate as compared with SS-31 [1]: approximately 100 fold | level of EC50 value (cell-penetrating ability) ([1]; comparison of CMP3013, LR10, MPP1a, SS-31): lowest EC50 value | mitochondrial/cytoplasmic abundance ratio (M/C ratio) [2]: 4.1 | rank of percentage in the mitochondrial fraction ([2]; 3 hours): highest percentage in the mitochondrial fraction | ATP production promoting ability [3]: promoting resumption of ATP production | stronger binding capacity for cardiolipin than SS-31 [4]: approximately 100 fold | mitochondrial membrane potential (Δψm), JC-1 ratio [5]: increased mitochondrial membrane potential | ALP decrease as compared with the TAA-administered group ([6]; 1 mg/kg intravenous x3): 19% | AST reduction as compared with the group having received TAA alone ([6]; 1 mg/kg intravenous x3): 35% | blood ALP [6, 7]: 462.00±81.10 U/L | blood ALT [6, 7]: 332.60±86.31 U/L | blood AST [6, 7]: 316.40±52.65 U/L | dose dependence of AST and ALT decrease ([6]; intraperitoneal 1, 5, or 10 mg/kg): dose-dependent manner | blood AST, ALT, and ALP ([6]; intraperitoneal x3, TAA 100 mg/kg Day 5, serum Day 7): all significantly reduced | adverse events [6, 8]: no adverse events occurred | mortality [6, 8]: no animals died | weight loss ([6]; mice, TAA and/or CMP3013): no weight loss was observed
